According to patent US11382956B2, “Amylin analogues” (Zealand Pharma A/S, priority 2016, dated 2022):
Numbered stars: 1 amine (or outer) side, 2 acyl side, 3 side chain; on linkers, the order of the positions; unused ones are H or OH. Bridge positions count the residues as written; N and C are the ends. Square brackets hold non-standard residues; d marks the D form. Peptide text beside a SMILES is read from it. * marks the point of attachment. C20 diacid = O=C(O)CCCCCCCCCCCCCCCCCCC(=O)*; γGlu = O=C(O)[C@H](CCC(=O)[*:2])N[*:1]; Hyp = O=C(O)[C@@H]1C[C@@H](O)CN1; NMeI = CC[C@H](C)[C@H](NC)C(=O)O; Aad = N[C@@H](CCCC(=O)O)C(=O)O; Sar = CNCC(=O)O

Key:
[1] = Assessment of chemical stability in 40 mM buffers at 40° C. (RP-HPLC); assay type: physicochemical; details: 1 mg/mL; for % degradation after 72 h at 40° C. pH4 acetate: acetate buffer pH 4, 72 h; for % degradation after 14 days at 40° C. pH4 acetate: acetate buffer pH 4, 14 days; for % degradation after 72 h at 40° C. pH6 phosphate: phosphate buffer pH 6, 72 h; for % degradation after 14 days at 40° C. pH6 phosphate: phosphate buffer pH 6, 14 days; for % degradation after 72 h at 40° C. pH7 phosphate: phosphate buffer pH 7, 72 h; for % degradation after 14 days at 40° C. pH7 phosphate: phosphate buffer pH 7, 14 days
Summary of the method: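 Peptides at 1 mg/mL in 40 mM acetate pH 4 or phosphate pH 6 and 7 were held at 40° C for 3 and 14 days. Main-peak area-% by C8 RP-HPLC, UV 220 nm; % degradation = change in main-peak area-% versus t=0.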

[2] = target: T1, recombinant human amylin 3 receptor (hAMYR3) (Homo sapiens, UniProt O60896+P30988); experiment: hAMYR3 cAMP assay (AlphaScreen) in 1321N1 cells; assay type: cell-based; details: cAMP formation, 45 min stimulation
T1 construct: host or cells: human astrocytoma cell line 1321N1
T1 sequence (P30988 25-474): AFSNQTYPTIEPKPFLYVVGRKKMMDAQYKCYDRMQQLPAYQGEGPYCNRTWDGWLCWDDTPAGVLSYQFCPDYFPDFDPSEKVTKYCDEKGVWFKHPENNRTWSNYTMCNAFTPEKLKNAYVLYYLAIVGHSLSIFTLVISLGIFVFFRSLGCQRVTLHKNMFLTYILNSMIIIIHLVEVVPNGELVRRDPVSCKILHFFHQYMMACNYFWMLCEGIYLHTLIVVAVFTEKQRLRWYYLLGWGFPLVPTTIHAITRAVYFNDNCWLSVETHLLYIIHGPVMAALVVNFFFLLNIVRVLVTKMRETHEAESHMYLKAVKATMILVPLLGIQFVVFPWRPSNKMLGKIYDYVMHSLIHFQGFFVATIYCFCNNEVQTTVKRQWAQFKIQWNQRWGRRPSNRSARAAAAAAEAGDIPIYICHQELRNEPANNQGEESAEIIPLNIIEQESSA
T1 sequence (O60896 24-148 partner): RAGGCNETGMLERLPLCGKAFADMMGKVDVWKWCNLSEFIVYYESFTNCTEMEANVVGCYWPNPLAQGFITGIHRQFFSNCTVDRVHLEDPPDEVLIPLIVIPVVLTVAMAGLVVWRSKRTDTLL
Summary of the method: (§1)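 1321N1 astrocytoma cells expressing recombinant human calcitonin receptor alone or with RAMP3 (AMY3) stimulated 45 min at room temperature with peptide in IBMX-containing buffer. cAMP quantified by AlphaScreen after 1 h bead incubation; EC50 fitted from at least 7 concentrations.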

[3] = target: T2, recombinant human calcitonin receptor (hCT-R) (Homo sapiens, UniProt P30988); experiment: hCT-R cAMP assay (AlphaScreen) in 1321N1 cells; assay type: cell-based; details: cAMP formation, 45 min stimulation
T2 construct: host or cells: human astrocytoma cell line 1321N1
T2 sequence (P30988 25-474): T1 sequence (P30988 25-474)
Summary of the method: as §1

[4] = Assessment of physical stability: fibril formation by Thioflavin T fluorescence; assay type: physicochemical; set-up: key: FND = fibrillation not detected; FD = fibrillation detected; details: 1 mg/mL peptide; for Fibrillation (in buffer) pH4 acetate: 50 mM acetate buffer pH 4.0, 96 hours at 40° C.; for Fibrillation (in buffer) pH7 histidine: 50 mM histidine buffer pH 7.0, 96 hours at 40° C.; for Fibrillation (in buffer) pH7 phosphate: 50 mM phosphate buffer pH 7.0, 96 hours at 40° C.
Summary of the method: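 Test peptide at 1 mg/mL with 40 μM ThT in 50 mM phosphate pH 7.0, 50 mM histidine pH 7.0, or 50 mM acetate pH 4.0, in triplicate. Fluorescence read every 10 min after 300 s agitation for 96 hours at 40° C; significant intensity rise scored as fibrillation detected (FD).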

| % degradation after 72 h at 40° C. pH4 acetate [1] | % degradation after 14 days at 40° C. pH4 acetate [1] | % degradation after 72 h at 40° C. pH6 phosphate [1] | % degradation after 14 days at 40° C. pH6 phosphate [1] | % degradation after 72 h at 40° C. pH7 phosphate [1] | % degradation after 14 days at 40° C. pH7 phosphate [1] | EC50 [2] | EC50 [3] | Fibrillation (in buffer) pH4 acetate [4] | Fibrillation (in buffer) pH7 histidine [4] | Fibrillation (in buffer) pH7 phosphate [4] | SMILES |
| --- | --- | --- | --- | --- | --- | --- | --- | --- | --- | --- | --- |
| 1.3% | <1% | <1% | <1% | 2.2% | <1% | 0.005 nM | 0.006 nM | FD | FND | FND | CC[C@H](C)[C@@H](C(=O)N[C@@H](CC(C)C)C(=O)N[C@@H](CO)C(=O)N[C@@H](CO)C(=O)N[C@H](C(=O)N[C@@H](CCC(=O)O)C(=O)N[C@H](C(=O)NCC(=O)N[C@@H](CO)C(=O)N[C@@H](CC(N)=O)C(=O)N[C@H](C(=O)N1C[C@H](O)C[C@H]1C(N)=O)[C@@H](C)O)C(C)C)[C@@H](C)O)N(C)C(=O)[C@H](C)NC(=O)CN(C)C(=O)[C@H](Cc1ccccc1)NC(=O)CNC(=O)CNC(=O)[C@H](CCCNC(=N)N)NC(=O)[C@H](CCC(N)=O)NC(=O)[C@H](CC(C)C)NC(=O)[C@H](Cc1ccccc1)NC(=O)[C@H](CCCC(=O)O)NC(=O)[C@H](C)NC(=O)[C@H](CC(C)C)NC(=O)[C@H](CCCNC(=N)N)NC(=O)[C@H](CCC(=O)O)NC(=O)[C@@H](NC(=O)[C@H](C)NC(=O)[C@@H]1CCCCNC(=O)C[C@H](NC(=O)[C@H](CCCNC(=N)N)NC(=O)CC[C@H](NC(=O)CCCCCCCCCCCCCCCCCCC(=O)O)C(=O)O)C(=O)NCC(=O)N[C@@H]([C@@H](C)O)C(=O)N[C@@H](C)C(=O)N[C@@H]([C@@H](C)O)C(=O)N1)[C@@H](C)O [Compound 32, [19CD]-isoGlu-RD()GTATK()ATERLA-Aad-FLQRGGF-Gly(Me)-A-Ile(Me)-LSSTEVGSNT-Hyp-NH2] ({C20 diacid-γGlu}-RDGTATKATERLA[Aad]FLQRGGF[Sar]A[NMeI]LSSTEVGSNT[Hyp]-NH2; lactam 2-7) |
| <1% |  | 1% |  | <1% |  | 0.009 nM | 0.019 nM | FND | FND | FND | CC[C@H](C)[C@@H](C(=O)N[C@@H](CC(C)C)C(=O)N[C@@H](CO)C(=O)N[C@@H](CO)C(=O)N[C@H](C(=O)N[C@@H](CCC(=O)O)C(=O)N[C@H](C(=O)NCC(=O)N[C@@H](CO)C(=O)N[C@@H](CC(N)=O)C(=O)N[C@H](C(=O)N1C[C@H](O)C[C@H]1C(N)=O)[C@@H](C)O)C(C)C)[C@@H](C)O)N(C)C(=O)[C@H](C)NC(=O)CN(C)C(=O)[C@H](Cc1ccccc1)NC(=O)[C@H](CC(N)=O)NC(=O)[C@H](C)NC(=O)[C@H](CCCNC(=N)N)NC(=O)[C@H](CCC(N)=O)NC(=O)[C@H](CC(C)C)NC(=O)[C@H](Cc1ccccc1)NC(=O)[C@H](CCCC(=O)O)NC(=O)[C@H](C)NC(=O)[C@H](CC(C)C)NC(=O)[C@H](CCCNC(=N)N)NC(=O)[C@H](CCC(=O)O)NC(=O)[C@@H](NC(=O)[C@H](C)NC(=O)[C@@H]1CCCCNC(=O)C[C@H](NC(=O)[C@H](CCCNC(=N)N)NC(=O)CC[C@H](NC(=O)CCCCCCCCCCCCCCCCCCC(=O)O)C(=O)O)C(=O)NCC(=O)N[C@@H]([C@@H](C)O)C(=O)N[C@@H](C)C(=O)N[C@@H]([C@@H](C)O)C(=O)N1)[C@@H](C)O [Compound 33, [19CD]-isoGlu-RD()GTATK()ATERLA-Aad-FLQRANF-Gly(Me)-A-Ile(Me)-LSSTEVGSNT-Hyp-NH2] ({C20 diacid-γGlu}-RDGTATKATERLA[Aad]FLQRANF[Sar]A[NMeI]LSSTEVGSNT[Hyp]-NH2; lactam 2-7) |
| <1% |  | <1% |  | 2.8% |  | 0.063 nM | 0.206 nM | FND | FND | FND | CC[C@H](C)[C@@H](C(=O)N1CCC[C@H]1C(=O)N[C@@H](CO)C(=O)N[C@@H](CO)C(=O)N[C@H](C(=O)N[C@@H](CCC(=O)O)C(=O)N[C@H](C(=O)NCC(=O)N[C@@H](CO)C(=O)N[C@@H](CC(N)=O)C(=O)N[C@H](C(=O)N1C[C@H](O)C[C@H]1C(N)=O)[C@@H](C)O)C(C)C)[C@@H](C)O)N(C)C(=O)[C@H](C)NC(=O)CN(C)C(=O)[C@H](Cc1ccccc1)NC(=O)[C@H](CO)NC(=O)[C@H](CO)NC(=O)[C@H](CCCNC(=N)N)NC(=O)[C@H](CCC(N)=O)NC(=O)[C@H](CC(C)C)NC(=O)[C@H](Cc1ccccc1)NC(=O)[C@H](CCCC(=O)O)NC(=O)[C@H](C)NC(=O)[C@H](CC(C)C)NC(=O)[C@H](CCCNC(=N)N)NC(=O)[C@H](CCC(=O)O)NC(=O)[C@@H](NC(=O)[C@H](C)NC(=O)[C@@H]1CCCCNC(=O)C[C@H](NC(=O)[C@H](CCCNC(=N)N)NC(=O)CC[C@H](NC(=O)CCCCCCCCCCCCCCCCCCC(=O)O)C(=O)O)C(=O)NCC(=O)N[C@@H]([C@@H](C)O)C(=O)N[C@@H](C)C(=O)N[C@@H]([C@@H](C)O)C(=O)N1)[C@@H](C)O [Compound 34, [19CD]-isoGlu-RD()GTATK()ATERLA-Aad-FLQRSSF-Gly(Me)-A-Ile(Me)-PSSTEVGSNT-Hyp-NH2] ({C20 diacid-γGlu}-RDGTATKATERLA[Aad]FLQRSSF[Sar]A[NMeI]PSSTEVGSNT[Hyp]-NH2; lactam 2-7) |
|  | 3.2% |  | 12.6% |  | 20.3% | 0.031 nM | 0.075 nM | FND | FND | FND | CC[C@H](C)[C@@H](C(=O)N[C@@H](CC(C)C)C(=O)N[C@@H](CO)C(=O)N[C@@H](CO)C(=O)N[C@H](C(=O)N[C@@H](CCC(=O)O)C(=O)N[C@H](C(=O)NCC(=O)N[C@@H](CO)C(=O)N[C@@H](CC(N)=O)C(=O)N[C@H](C(=O)N1C[C@H](O)C[C@H]1C(N)=O)[C@@H](C)O)C(C)C)[C@@H](C)O)N(C)C(=O)[C@H](C)NC(=O)CN(C)C(=O)[C@H](Cc1ccccc1)NC(=O)[C@H](CO)NC(=O)[C@H](CO)NC(=O)[C@H](CCCNC(=N)N)NC(=O)[C@H](CCC(N)=O)NC(=O)[C@H](CC(C)C)NC(=O)[C@H](Cc1ccccc1)NC(=O)[C@H](CCCC(=O)O)NC(=O)[C@H](C)NC(=O)[C@H](CC(C)C)NC(=O)[C@H](CCCNC(=N)N)NC(=O)[C@H](CCC(=O)O)NC(=O)[C@@H](NC(=O)[C@H](C)NC(=O)[C@@H]1CSSC[C@H](NC(=O)[C@H](CCCNC(=N)N)NC(=O)CC[C@H](NC(=O)CCCCCCCCCCCCCCCCCCC(=O)O)C(=O)O)C(=O)NCC(=O)N[C@@H]([C@@H](C)O)C(=O)N[C@@H](C)C(=O)N[C@@H]([C@@H](C)O)C(=O)N1)[C@@H](C)O [Ref. 4, [19CD]-isoGlu-RC()GTATC()ATERLA-Aad-FLQRSSF-Sar-A-Ile(Me)-LSSTEVGSNT-Hyp-NH2, reference compound] ({C20 diacid-γGlu}-RCGTATCATERLA[Aad]FLQRSSF[Sar]A[NMeI]LSSTEVGSNT[Hyp]-NH2; disulfide 2-7) |
